This is an account of results in patent US12454529B2, “Piperazine cyclic ureas” (SIRONAX LTD., priority 2020, dated 2025).

The first experiment relates to HT-29 cells. As to the kind of experiment: HT-29 cell necrosis/necroptosis inhibition (TNF-α + SMAC mimetic + zVAD-FMK; CellTiter-Glo cell viability). Type of experiment: cell-based. Conditions: Homo sapiens; HT-29 cells, TNF-α 10 ng/ml + SMAC mimetic 6 μM + zVAD-FMK 10 μM, 20 hours; geometric mean, 10 points in duplicate; read-out: EC50 (Cell activity; Necrosis/Necroptosis Inhibitory Activity, Compounds 1-142). The procedure:
Compounds 1-319 (denoted as Compound Nos. 1 through 319 in Table 3 and 4) of the disclosure were tested for binding and cellular RIP1 inhibitory activity following the experimental procedures described below.
• Cell line: HT-29 (ATCC® HTB-38™) • Culture medium: McCOY's 5A, Gibco, Cat No. 16600-082 • FBS, Gibco, Cat No. 10099-141C • Trypsin: Gibco, Cat No. 25200-056 • DMSO: Sigma, Cat No. 67-68-5, 1L • Assay plate: Corning #3903 • Compound dilution plate: Corning #3357 • Inducers: TNFα, GenScript, Cat No. Z01001-50, • SmacM, Cat. No., HY-15989, MedChemExpress (MCE) • Z_VAD FMK, TargetMol, T6013 • Cell Titer-Glo® Luminescent Cell Viability Assay Kit: Promega, Cat No. G7573 • EnVision: PerkinElmer, 2105-0010 Methods Cell Seeding
1. HT-29 cells were checked every day to make sure that they were healthy and growing as expected. They were subjected to sub-culturing when they were approximately 80% confluent.
2. The culture medium, McCOY's 5A medium (Gibco, Cat No. 16600-082) with 10% fetal bovine serum or FBS (Gibco, Cat No. 10099-141C), was pre-warmed in a 37° C. water bath for at least 30 min.
3. When the cells had reached a desired level of confluency of 80% in a T75 flask, the medium was aspirated, and the cells were washed with warm phosphate buffered saline or PBS two times.
4. 2-3 ml fresh warm trypsin (Gibco, Cat No. 25200-056) solution was added to the washed cells. The flask with the cells was transferred to a 37° C. incubator.
5. After 5 minutes, the side of the flask was tapped, and the flask was examined under a microscope for detachment of the cells to the flask. If necessary, the cells were kept in the incubator for an additional 5-10 minutes, with occasional tapping, until lifting was complete.
6. The trypsin reaction was neutralized by transferring 6-9 ml cell culture medium to sterile 15 ml conical tubes, and by centrifuging the cell culture at 300×g for 7 minutes to pellet the cells (supernatant decanted).
7. The cells were resuspended in fresh cell culture medium and the cell counting was performed using a hemocytometer.
8. 100 μl of the resuspended cell culture medium containing ˜5,000 cells were transferred into each well of the sterile 96-well cell culture plate (Corning 3903) and cultured overnight at 37° C. with 5% CO2.
Compound Titration and Treatment
1. All test compounds were dissolved in DMSO (Dimethyl sulfoxide) to create a 20 mM stock.
2. 3 μl of each compound 20 mM stock was mixed with 27 μl DMSO, and the compound solution was further diluted at a titration ratio of 1:3 (20 μl compound solution+40 μl DMSO) till the 10 points end.
3. All culture medium was removed from assay plates filled with HT-29 cell cultures. The cells were then washed with 1 PBS, and resuspended in fresh, FBS-free McCOY's 5A medium containing a cocktail of TNF-α (10 ng/ml), a SMAC mimetic compound (6 μM) and Z-VAD-fluoromethylketone or zVAD-FMK (10 μM) to stimulate the HT-29 cells to increase RIP1 kinase levels and necroptosis.
4. 0.5 μL of the diluted compound solution was added to the corresponding 96-well assay plates.
5. The assay plates were incubated for 20 hours at 37° C. with 5% CO2.
1. The CellTiter-Glo® Luminescent Cell Viability Assay was employed to detect the ATP levels of viable HT-29 cells.
2. The CellTiter-Glo® buffer and the lyophilized substrate were equilibrated to room temperature prior to use.
3. The CellTiter-Glo® substrate was resuspended with CellTiter-Glo® buffer, then mixed by gently vortexing to obtain a homogeneous solution.
4. 20 μl the enzyme/substrate mixture was transferred by multi-channel pipetting into 96-well assay plates.
5. The assay plates were placed on an orbital shaker and the contents were shaken for 3 minutes to induce cell lysis.
6. The assay plates were incubated at room temperature for 10 minutes to stabilize the luminescent signal.
7. The luminescence signals were read and recorded with EnVision.
8. The geometric mean EC50 values were calculated from 10 points response dose with duplicates. In
On the technique in general: Cellular ATP, detected with luciferase, serves as a proxy for viable cell number.
What is called EC50 is the concentration at which the effect is half-maximal. As to `CCn1c(C)nn(-c2nc(N3CCN(C(=O)N4N=CC[C@H]4c4cc(F)cc(F)c4)CC3)ncc2F)c1=O` [Compound 98, (S)-2-(2-(4-(5-(3,5-difluorophenyl)-4,5-dihydro-1H-pyrazole-1-carbonyl)piperazin-1-yl)-5-fluoropyrimidin-4-yl)-4-ethyl-5-methyl-2,4-dihydro-3H-1,2,4-triazol-3-one], the EC50 lay in the range of 0.1 to 100 nM.

For `O=C(N1CCN(c2nccc(-c3cc[nH]n3)n2)CC1)N1N=CC[C@H]1c1cncc(F)c1` [Compound 36, (S)-(4-(4-(1H-pyrazol-3-yl)pyrimidin-2-yl)piperazin-1-yl)(5-(5-fluoropyridin-3-yl)-4,5-dihydro-1H-pyrazol-1-yl)methanone], the EC50 lay within 0.1 to 100 nM.

On to `O=C(N1CCN(c2ccnc(-c3ccc[nH]3)n2)CC1)N1N=CC[C@H]1c1cc(F)cc(F)c1` [Compound 5, (S)-(4-(2-(1H-pyrrol-2-yl)pyrimidin-4-yl)piperazin-1-yl)(5-(3,5-difluorophenyl)-4,5-dihydro-1H-pyrazol-1-yl)methanone], for which the EC50 was 0.1 to 100 nM.

For the molecule `Cc1nc(C#N)nn1-c1nc(N2CCN(C(=O)N3N=CC[C@H]3c3cc(F)cc(C#N)c3)CC2)ncc1F` [Compound 139, (S)-1-(2-(4-(5-(3-cyano-5-fluorophenyl)-4,5-dihydro-1H-pyrazole-1-carbonyl)piperazin-1-yl)-5-fluoropyrimidin-4-yl)-5-methyl-1H-1,2,4-triazole-3-carbonitrile], the EC50 was in the range of 0.1 to 100 nM.

As for `N#Cc1cccc([C@@H]2CC=NN2C(=O)N2CCN(c3ncc(F)c(-n4cc(C(N)=O)cn4)n3)CC2)c1` [Compound 109, (S)-1-(2-(4-(5-(3-cyanophenyl)-4,5-dihydro-1H-pyrazole-1-carbonyl)piperazin-1-yl)-5-fluoropyrimidin-4-yl)-1H-pyrazole-4-carboxamide], the EC50 lay in the range of 0.1 to 100 nM.

Take `Cc1cc(-c2nc(N3CCN(C(=O)N4N=CC[C@H]4c4ccccc4)CC3)ncc2F)n(C)n1` [Compound 85, (S)-(4-(4-(1,3-dimethyl-1H-pyrazol-5-yl)-5-fluoropyrimidin-2-yl)piperazin-1-yl)(5-phenyl-4,5-dihydro-1H-pyrazol-1-yl)methanone]: the EC50 lay within 0.1 to 100 nM.

Regarding `NC(=O)c1cnn(-c2ccnc(N3CCN(C(=O)N4N=CC[C@H]4c4cccc(F)c4)CC3)n2)c1` [Compound 17, (S)-1-(2-(4-(5-(3-fluorophenyl)-4,5-dihydro-1H-pyrazole-1-carbonyl)piperazin-1-yl)pyrimidin-4-yl)-1H-pyrazole-4-carboxamide], the EC50 lay in the range of 0.1 to 100 nM.

Turning to `Cn1nccc1-c1nc(N2CCN(C(=O)N3N=CC[C@H]3c3cc(F)cc(F)c3)CC2)ncc1F` [Compound 28, (S)-(5-(3,5-difluorophenyl)-4,5-dihydro-1H-pyrazol-1-yl)(4-(5-fluoro-4-(1-methyl-1H-pyrazol-5-yl)pyrimidin-2-yl)piperazin-1-yl)methanone], the EC50 lay within 0.1 to 100 nM.

In the case of `Cc1cnn(C)c1-c1nc(N2CCN(C(=O)N3N=CC[C@H]3c3cc(F)cc(F)c3)CC2)ncc1F` [Compound 61, (S)-(5-(3,5-difluorophenyl)-4,5-dihydro-1H-pyrazol-1-yl)(4-(4-(1,4-dimethyl-1H-pyrazol-5-yl)-5-fluoropyrimidin-2-yl)piperazin-1-yl)methanone], the EC50 is 0.1 to 100 nM.

Staying with this experiment, now noted: Homo sapiens; HT-29 cells, TNF-α 10 ng/ml + SMAC mimetic 6 μM + zVAD-FMK 10 μM, 20 hours; geometric mean, 10 points in duplicate; read-out: EC50 (Cell activity; Necrosis/Necroptosis Inhibitory Activity, Compounds 143-323).
For `Cc1csc(C2CC=NN2C(=O)N2CCN(c3nc(-c4c(C)cnn4C)ncc3F)CC2)n1` (centres unmarked) [Compound 161, (4-(2-(1,4-dimethyl-1H-pyrazol-5-yl)-5-fluoropyrimidin-4-yl)piperazinyl)(5-(4-methylthiazol-2-yl)-4,5-dihydro-1H-pyrazol-1-yl)methanone], the EC50 fell in the range of 0.1 to 100 nM.

For the molecule `Cc1nn(-c2cc(N3CCN(C(=O)N4N=CC[C@H]4c4cc(F)cc(C#N)c4)CC3)ncn2)c(C)c1Cl` [Compound 289, (S)-3-(1-(4-(6-(4-chloro-3,5-dimethyl-1H-pyrazol-1-yl)pyrimidin-4-yl)piperazine-1-carbonyl)-4,5-dihydro-1H-pyrazol-5-yl)-5-fluorobenzonitrile], the EC50 was 0.1 to 100 nM.

As to `Cc1nn(-c2cc(N3CCN(C(=O)N4N=CC[C@H]4c4cncc(F)c4)CC3)ncn2)c(C)c1C(N)=O` [Compound 284, (S)-1-(6-(4-(5-(5-fluoropyridin-3-yl)-4,5-dihydro-1H-pyrazole-1-carbonyl)piperazin-1-yl)pyrimidin-4-yl)-3,5-dimethyl-1H-pyrazole-4-carboxamide], the EC50 lay in the range of 100 to 1000 nM.

As to `Cc1nc(C)n(-c2nc(N3CCN(C(=O)N4N=CC[C@H]4c4cc(F)cc(C#N)c4)CC3)ncc2Cl)n1` [Compound 260, (S)-3-(1-(4-(5-chloro-4-(3,5-dimethyl-1H-1,2,4-triazol-1-yl)pyrimidin-2-yl)piperazine-1-carbonyl)-4,5-dihydro-1H-pyrazol-5-yl)-5-fluorobenzonitrile], the concentration giving a half-maximal response (EC50) is 0.1 to 100 nM.

On to `Cc1nc(C)n(-c2nccc(N3CCN(C(=O)N4N=CC[C@H]4c4cc(F)cc(C#N)c4)CC3)n2)n1` [Compound 244, (S)-3-(1-(4-(2-(3,5-dimethyl-1H-1,2,4-triazol-1-yl)pyrimidin-4-yl)piperazine-1-carbonyl)-4,5-dihydro-1H-pyrazol-5-yl)-5-fluorobenzonitrile], for which the EC50 lay within 0.1 to 100 nM.

`Cn1ncnc1-c1ccc(F)c(N2CCN(C(=O)N3N=CCC3c3ncccc3Cl)CC2)n1` (centres unmarked) [Compound 222, (5-(3-chloropyridin-2-yl)-4,5-dihydro-1H-pyrazol-1-yl)(4-(3-fluoro-6-(1-methyl-1H-1,2,4-triazol-5-yl)pyridin-2-yl)piperazin-1-yl)methanone]: the half-maximal effective concentration (EC50) was 0.1 to 100 nM.

For the molecule `Cc1nn(-c2cc(N3CCN(C(=O)N4N=CC[C@H]4c4cncc(F)c4)CC3)ncn2)c(C)c1Cl` [Compound 290, (S)-(4-(6-(4-chloro-3,5-dimethyl-1H-pyrazol-1-yl)pyrimidin-4-yl)piperazin-1-yl)(5-(5-fluoropyridin-3-yl)-4,5-dihydro-1H-pyrazol-1-yl)methanone], the EC50 is 0.1 to 100 nM.

As to `O=C(N1CCN(c2ncc(F)c(-n3cnc(C(F)(F)F)n3)n2)CC1)N1N=CC[C@H]1c1ccccc1` [Compound 312, (S)-(4-(5-fluoro-4-(3-(trifluoromethyl)-1H-1,2,4-triazol-1-yl)pyrimidin-2-yl)piperazinyl)(5-phenyl-4,5-dihydro-1H-pyrazol-1-yl)methanone], the EC50 lay within 0.1 to 100 nM.

For the molecule `Cc1nn(-c2cc(N3CCN(C(=O)N4N=CC[C@H]4c4cc(F)cc(C#N)c4)CC3)ncn2)c(C)c1C(N)=O` [Compound 282, (S)-1-(6-(4-(5-(3-cyano-5-fluorophenyl)-4,5-dihydro-1H-pyrazole-1-carbonyl)piperazin-1-yl)pyrimidin-4-yl)-3,5-dimethyl-1H-pyrazole-4-carboxamide], the 50% effective concentration (EC50) was 0.1 to 100 nM.

With `Cc1[nH]nc(CO)c1-c1nc(N2CCN(C(=O)N3N=CC[C@H]3c3cc(F)cc(C#N)c3)CC2)ncc1F` [Compound 163, (S)-3-fluoro-5-(1-(4-(5-fluoro-4-(3-(hydroxymethyl)-5-methyl-1H-pyrazol-4-yl)pyrimidin-2-yl)piperazine-1-carbonyl)-4,5-dihydro-1H-pyrazol-5-yl)benzonitrile], the EC50 fell in the range of 0.1 to 100 nM.

For the molecule `Cc1nnc(-c2nc(N3CCN(C(=O)N4N=CCC4c4ncccc4Cl)CC3)ncc2F)s1` (centres unmarked) [Compound 210], the EC50 fell in the range of 0.1 to 100 nM.
